The target of experiment [1] is T1, pseudo-kinase domain (JH2, amino-acids 536-812) of human V617F mutant JAK2 (Homo sapiens, UniProt O60674, F794H/V617F/W659A/W777A).
T1 construct: pseudo-kinase domain (JH2, amino-acids 536-812 with 3 surface mutations W659A, W777A, F794H); purchased BPS Bioscience 79498; host or cells: baculovirus expression system
Nature of the experiment: JAK2 LanthaScreen JH2-V617F Binding Assay. To be noted: 1 hour at 25° C. Summed up: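 Competition of compounds with a fluorescent tracer (50 nM) for the biotinylated domain (0.26 nM), detected via streptavidin-Tb (0.25 nM) after 1 h at 25° C in pH 7.5 Tris buffer containing glycerol, BSA and Brij-35. ATP at 2 mM gave background. IC50 by four-parameter fit.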

Experiment [2] has as its target T2, pseudo-kinase domain (JH2, amino-acids 536-812) of human Wild Type JAK2 (Homo sapiens, UniProt O60674, F794H/W659A/W777A).
T2 construct: pseudo-kinase domain (JH2, amino-acids 536-812 with 3 surface mutations W659A, W777A, F794H); purchased BPS Bioscience 79463; host or cells: baculovirus expression system
Nature of the experiment: JAK2 LanthaScreen JH2-WT Binding Assay. To be noted: 1 hour at 25° C. Summed up: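 TR-FRET tracer displacement: 0.145 nM biotinylated JH2 protein, 50 nM fluorescent tracer, 0.25 nM streptavidin-Tb, compound dilution series; 50 mM Tris pH 7.5, 10 mM MgCl2, 5 mM DTT; 1 h, 25° C. Non-specific binding with 2 mM ATP. IC50 by 4-parameter fit.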

Experiment [3] has as its target T3, catalytic domain (JH1, amino acids 826-1132) of human JAK2 (Homo sapiens, UniProt O60674).
T3 construct: catalytic domain (JH1, amino acids 826-1132) of human JAK2; purchased Carna Biosciences 08-445-20N; host or cells: baculovirus expression system
Nature of the experiment: JAK2 LanthaScreen JH1 Binding Assay. The conditions noted are these: 2 hours at 25° C. Summed up: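 FLAG-tagged biotinylated JAK2 JH1 (1.5 nM) incubated with compounds, 50 nM fluorescent tracer and 0.5 nM streptavidin-Tb in Tris pH 7.5 buffer with MgCl2, BSA, DTT, 2 h at 25 °C.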

The target in experiment [4] is T4, catalytic domain (JH1, amino acids 808-1132) of human JAK2 (Homo sapiens, UniProt O60674).
T4 construct: catalytic domain (JH1, amino acids 808-1132) of human JAK2; His (N); purchased BPS Bioscience 40450; host or cells: baculovirus expression system
T4 sequence (O60674 808-1132): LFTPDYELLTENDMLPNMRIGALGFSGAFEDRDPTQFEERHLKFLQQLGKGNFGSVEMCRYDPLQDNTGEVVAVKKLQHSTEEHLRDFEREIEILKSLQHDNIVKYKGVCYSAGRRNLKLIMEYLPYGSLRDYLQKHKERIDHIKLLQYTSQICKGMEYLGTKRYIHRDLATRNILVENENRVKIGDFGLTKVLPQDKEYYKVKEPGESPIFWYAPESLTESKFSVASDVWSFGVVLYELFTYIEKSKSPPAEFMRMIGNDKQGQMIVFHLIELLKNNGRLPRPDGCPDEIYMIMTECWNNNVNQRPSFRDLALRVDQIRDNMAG
Nature of the experiment: JAK2 HTRF Enzyme Activity Assay. The conditions noted are these: ATP 30 μM, read-out: ENZ 30UMATP. Type of experiment: biochemical. Put shortly:
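His-tagged JAK2 JH1 from baculovirus, 0.015 nM, incubated with compound, ATP at 30 μM or 1 mM and 500 nM biotinylated peptide, pH 7.5, 60 min at 25° C. HTRF read-out via Eu-anti-phosphotyrosine and streptavidin-APC after EDTA stop; IC50 from four-parameter dose-response fit.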

Structures can show the parent of a compound that is named as a salt.

T3 sequence (O60674 826-1132): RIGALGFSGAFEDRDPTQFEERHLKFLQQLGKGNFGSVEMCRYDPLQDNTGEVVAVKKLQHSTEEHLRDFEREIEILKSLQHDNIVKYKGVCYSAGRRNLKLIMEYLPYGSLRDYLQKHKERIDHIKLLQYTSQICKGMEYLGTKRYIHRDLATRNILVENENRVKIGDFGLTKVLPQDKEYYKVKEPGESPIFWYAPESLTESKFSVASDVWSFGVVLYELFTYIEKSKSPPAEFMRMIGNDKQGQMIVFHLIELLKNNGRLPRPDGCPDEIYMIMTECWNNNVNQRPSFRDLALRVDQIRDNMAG
T2 sequence (O60674 536-812 W659A/W777A/F794H): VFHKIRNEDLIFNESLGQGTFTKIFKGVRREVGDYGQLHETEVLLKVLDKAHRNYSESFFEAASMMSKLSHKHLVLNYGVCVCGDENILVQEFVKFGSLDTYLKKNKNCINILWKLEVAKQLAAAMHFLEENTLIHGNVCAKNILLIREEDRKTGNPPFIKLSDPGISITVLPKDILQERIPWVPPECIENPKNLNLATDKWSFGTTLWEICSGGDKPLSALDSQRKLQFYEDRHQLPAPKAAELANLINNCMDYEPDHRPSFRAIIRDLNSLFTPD
T1 sequence (O60674 536-812 V617F/W659A/W777A/F794H): as the sequence (O60674 536-812 W659A/W777A/F794H) above, with V82F counted along it

In the case of `CC(=O)N1CC(CC#N)(N2CCC3(CC2)C(=O)N(C)c2cnc4[nH]c(-c5cnn(C)c5)c(-c5ccccc5)c4c23)C1` [Example 24, 2-(1-Acetyl-3-(6-methyl-2-(1-methyl-1H-pyrazol-4-yl)-7-oxo-1-phenyl-6,7-dihydro-3H-spiro[dipyrrolo[2,3-b:3′,2′-d]pyridine-8,4′-piperidin]-1′-yl)azetidin-3-yl)acctonitrile, trifluoroacetate salt], the IC50 in experiment [1] was at most 100 nM; in experiment [2], at most 100 nM; in experiment [3], 500 to 1250 nM; in experiment [4], 100 to 500 nM.
On to `CCNC(=O)N1CC(CC#N)(N2CCC3(CC2)C(=O)N(C)c2cnc4[nH]c(-c5cnn(C)c5)c(-c5ccccc5)c4c23)C1` [Example 25, 3-(Cyanomethyl)-N-ethyl-3-(6-methyl-2-(1-methyl-1H-pyrazol-4-yl)-7-oxo-1-phenyl-6,7-dihydro-3H-spiro[dipyrrolo[2,3-b:3′,2′-d]pyridine-8,4′-piperidin]-1′-yl)azetidine-1-carboxamide, trifluoroacetate salt], for which the IC50 was at most 100 nM in experiment [1], at most 100 nM in experiment [2], 500 to 1250 nM in experiment [3] and 100 to 500 nM in experiment [4].
As to `CCNC(=O)NC1CC(CC#N)(N2CCC3(CC2)C(=O)N(C)c2cnc4[nH]c(-c5cnn(C)c5)c(-c5ccccc5)c4c23)C1` (stereo not shown) [Example 28, 1-(3-(Cyanomethyl)-3-(6-methyl-2-(1-methyl-1H-pyrazol-4-yl)-7-oxo-1-phenyl-6,7-dihydro-3H-spiro[dipyrrolo[2,3-b:3′,2′-d]pyridine-8,4′-piperidin]-1′-yl)cyclobutyl)-3-ethylurea, trifluoroacetate salt], the IC50 in experiment [1] was at most 100 nM; in experiment [2] it was at most 100 nM; in experiment [3], 100 to 500 nM; in experiment [4], 100 to 500 nM.
With `CN1C(=O)C2(CCN(C3(CC#N)CC(NS(=O)(=O)c4ccccc4)C3)CC2)c2c1cnc1[nH]c(-c3cnn(C)c3)c(-c3ccccc3)c21` (stereo not shown) [Example 29, N-(3-(Cyanomethyl)-3-(6-methyl-2-(1-methyl-1H-pyrazol-4-yl)-7-oxo-1-phenyl-6,7-dihydro-3H-spiro[dipyrrolo[2,3-b:3′,2′-d]pyridine-8,4′-piperidin]-1-yl)cyclobutyl)benzenesulfonamide, trifluoroacctate salt], the IC50 in experiment [1] is at most 100 nM; in experiment [2] it was at most 100 nM; in experiment [3] it was 500 to 1250 nM; in experiment [4], 500 to 1250 nM.
As for `CN1C(=O)C2(CCN(C3(CC#N)CCC3)CC2)c2c1cnc1[nH]c(-c3cnn(CC(F)F)c3)c(-c3ccc4c(cnn4C)c3)c21` [Example 30, 2-(1-(2-(1-(2,2-Difluoroethyl)-1H-pyrazol-4-yl)-6-methyl-1-(1-methyl-1H-indazol-5-yl)-7-oxo-6,7-dihydro-3H-spiro[dipyrrolo[2,3-b:3′,2′-d]pyridine-8,4′-piperidin]-1′-yl)cyclobutyl)acetonitrile, trifluoroacetate salt], the IC50 in experiment [1] was at most 100 nM; in experiment [2] it was at most 100 nM; in experiment [3] it was 100 to 500 nM; in experiment [4], 100 to 500 nM.
In the case of `CN1C(=O)C2(CCN(C3(CC#N)CCC3)CC2)c2c1cnc1[nH]c(-c3cnn(C)c3)c(-c3ccc4c(cnn4C)c3)c21` [Example 31, 2-(1-(6-Methyl-1-(1-methyl-1H-indazol-5-yl)-2-(1-methyl-1H-pyrazol-4-yl)-7-oxo-6,7-dihydro-3H-spiro[dipyrrolo[2,3-b:3′,2′-d]pyridine-8,4′-piperidin]-1′-yl)cyclobutyl)acetonitrile, trifluoroacetate salt], the IC50 was at most 100 nM in experiment [1], at most 100 nM in experiment [2], 100 to 500 nM in experiment [3] and 100 to 500 nM in experiment [4].
`CN1C(=O)C2(CCN(C3(CC#N)CCC3)CC2)c2c1cnc1[nH]c(-c3cnn(CC(C)(C)O)c3)c(-c3ccc4c(cnn4C)c3)c21` [Example 32, 2-(1-(2-(1-(2-Hydroxy-2-methylpropyl)-1H-pyrazol-4-yl)-6-methyl-1-(1-methyl-1H-indazol-5-yl)-7-oxo-6,7-dihydro-3H-spiro[dipyrrolo[2,3-b:3′,2′-d]pyridine-8,4′-piperidin]-1′-yl)cyclobutyl)acetonitrile, trifluoroacetate salt]: the IC50 was at most 100 nM in experiment [1], at most 100 nM in experiment [2], 100 to 500 nM in experiment [3] and 100 to 500 nM in experiment [4].
Regarding `CN1C(=O)C2(CCN(C3(CC#N)CCC3)CC2)c2c1cnc1[nH]c(-c3cnn(CC(F)(F)F)c3)c(-c3ccc4c(cnn4C)c3)c21` [Example 33, 2-(1-(6-Methyl-1-(1-methyl-1H-indazol-5-yl)-7-oxo-2-(1-(2,2,2-trifluoroethyl)-1H-pyrazol-4-yl)-6,7-dihydro-3H-spiro[dipyrrolo[2,3-b:3′,2′-d]pyridine-8,4′-piperidin]-1′-yl)cyclobutyl)acetonitrile, trifluoroacetate salt], the IC50 is at most 100 nM in experiment [1], at most 100 nM in experiment [2], 500 to 1250 nM in experiment [3] and 500 to 1250 nM in experiment [4].
As for `CCS(=O)(=O)c1ccc(-c2[nH]c3ncc4c(c3c2-c2ccc3c(cnn3C)c2)C2(CCN(C3(CC#N)CCC3)CC2)C(=O)N4C)cc1` [Example 35, 2-(1-(2-(4-(Ethylsulfonyl)phenyl)-6-methyl-1-(1-methyl-1H-indazol-5-yl)-7-oxo-6,7-dihydro-3H-spiro[dipyrrolo[2,3-b:3′,2′-d]pyridine-8,4′-piperidin]-1′-yl)cyclobutyl)acetonitrile, trifluoroacetate salt], the IC50 in experiment [1] is at most 100 nM; in experiment [2], at most 100 nM; in experiment [3] it was 500 to 1250 nM; in experiment [4], 500 to 1250 nM.
For `COCCn1cc(-c2[nH]c3ncc4c(c3c2-c2ccc3c(cnn3C)c2)C2(CCN(C3(CC#N)CCC3)CC2)C(=O)N4C)cn1` [Example 36, 2-(1-(2-(1-(2-Methoxyethyl)-1H-pyrazol-4-yl)-6-methyl-1-(1-methyl-1H-indazol-5-yl)-7-oxo-6,7-dihydro-3H-spiro[dipyrrolo[2,3-b:3′,2′-d]pyridine-8,4′-piperidin]-1′-yl)cyclobutyl)acetonitrile, trifluoroacetate salt], the IC50 in experiment [1] is at most 100 nM; in experiment [2], at most 100 nM; in experiment [3], 100 to 500 nM; in experiment [4], 100 to 500 nM.
`CN1C(=O)C2(CCN(C3(CC#N)CCC3)CC2)c2c1cnc1[nH]c(-c3cnn(C(C)(C)CO)c3)c(-c3ccc4c(cnn4C)c3)c21` [Example 37, 2-(1-(2-(1-(1-Hydroxy-2-methylpropan-2-yl)-1H-pyrazol-4-yl)-6-methyl-1-(1-methyl-1H-indazol-5-yl)-7-oxo-6,7-dihydro-3H-spiro[dipyrrolo[2,3-b:3′,2′-d]pyridine-8,4′-piperidin]-1′-yl)cyclobutyl)acetonitrile, trifluoroacetate salt]: the IC50 is at most 100 nM in experiment [1], at most 100 nM in experiment [2], 100 to 500 nM in experiment [3] and 100 to 500 nM in experiment [4].
In the case of `CN1C(=O)C2(CCN(C3(CC#N)CCC3)CC2)c2c1cnc1[nH]c(-c3cnn(CCN4CCOCC4)c3)c(-c3ccc4c(cnn4C)c3)c21` [Example 38, 2-(1-(6-Methyl-1-(1-methyl-1H-indazol-5-yl)-2-(1-(2-morpholinoethyl)-1H-pyrazol-4-yl)-7-oxo-6,7-dihydro-3H-spiro[dipyrrolo[2,3-b:3′,2′-d]pyridine-8,4′-piperidin]-1′-yl)cyclobutyl)acetonitrile, trifluoroacetate salt], the IC50 in experiment [1] is at most 100 nM; in experiment [2], at most 100 nM; in experiment [3], 100 to 500 nM; in experiment [4], at most 100 nM.
Take `CN1C(=O)C2(CCN(C3(CC#N)CCC3)CC2)c2c1cnc1[nH]c(-c3cnn(CC4CC4)c3)c(-c3ccc4c(cnn4C)c3)c21` [Example 39, 2-(1-(2-(1-(Cyclopropylmethyl)-1H-pyrazol-4-yl)-6-methyl-1-(1-methyl-1H-indazol-5-yl)-7-oxo-6,7-dihydro-3H-spiro[dipyrrolo[2,3-b:3′,2′-d]pyridine-8,4′-piperidin]-1′-yl)cyclobutyl)acetonitrile, trifluoroacetate salt]: the IC50 in experiment [1] is at most 100 nM; in experiment [2], at most 100 nM; in experiment [3], 100 to 500 nM; in experiment [4] it was 100 to 500 nM.

These data come from US11958861B2, “Spirocyclic lactams as JAK2 V617F inhibitors” (Incyte Corporation, priority 2021, dated 2024).
